± gives the standard deviation of the averaged measurements.

The values that follow come from the supplement of paper PMC10331698.

Assay in all cases: level (log10 ratio to DMSO vehicle control); higher = higher biomarker level / cell amount than vehicle control
Compound in assay [1]: CN(C(=O)C(F)(F)C(F)(F)C(F)(F)F)[Si](C)(C)C [N-Methyl-N-trimethylsilylheptafluorobutyramide] (in DMSO)
How it is done: (§1)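 BioMAP Diversity Plus panel of 12 human primary cell co-culture systems (3C, 4H, LPS, SAg, BT, BF4T, BE3C, CASM3C, HDF3CGF, KF3CT, MyoF, Mphg). Compounds were added 1 h before stimulation and left for 24 h (MyoF 48 h; BT 72 h for soluble read-outs or 6 d for IgG). Biomarkers were read by ELISA, cytotoxicity by SRB, PBMC viability and proliferation by Alamar Blue. Each well value was divided by the mean of 8 DMSO control wells on the same plate and log10 transformed; duplicate blinded samples were tested at 4 concentrations.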

Compound in assay [2]: C[C@@H]1C[C@H]2[C@@H]3CCC4=CC(=O)C=C[C@]4(C)[C@@]3(F)[C@@H](O)C[C@]2(C)[C@@]1(O)C(=O)COP(=O)(O)O [Dexamethasone sodium phosphate] (in DMSO)
How it is done:
as §1

Compound in assay [3]: O=C(O)C(F)(F)C(F)(F)C(F)(F)OC(F)(F)F [Perfluoro(4-methoxybutanoic) acid] (in DMSO)
The method, then: as §1

Compound in assay [4]: O=C(O)C(F)(OC(F)(F)C(F)(OC(F)(F)C(F)(OC(F)(F)C(F)(F)C(F)(F)F)C(F)(F)F)C(F)(F)F)C(F)(F)F [Perfluoro-(2,5,8-trimethyl-3,6,9-trioxadodecanoic)acid] (in DMSO)
The method, then:
as §1

Compound in assay [5]: O=C(O)CCC(F)(C(F)(F)F)C(F)(F)F [4,4-bis(Trifluoromethyl)-4-fluoropropanoic acid] (in DMSO)
The method, then: as §1

Compound in assay [6]: OCC(F)(F)C(F)(F)C(F)(F)C(F)(F)C(F)(F)C(F)(F)CO [1H,1H,8H,8H-Perfluorooctane-1,8-diol] (in DMSO)
The method, then: as §1

Consider lMphg:CD40, for which the “level (log10)” value in assay [1] (6700 nM) is -0.008 ± 0.027; in assay [1] (20000 nM) it was -0.016; in assay [1] (60000 nM), -0.0145 ± 0.022; in assay [2] (1500 nM), -0.0185 ± 0.026; in assay [2] (4400 nM), -0.0375 ± 0.0092; in assay [2] (13000 nM), -0.038 ± 0.013. Besides, the “level (log10)” value in assay [2] (40000 nM) is -0.103 ± 0.04; in assay [3] (6700 nM), -0.014 ± 0.024; in assay [3] (20000 nM) it was -0.027 ± 0.033; in assay [3] (60000 nM), -0.0375 ± 0.03; in assay [4] (1100 nM), 0.019 ± 0.057; in assay [4] (3300 nM), 0.026 ± 0.076. Besides, the “level (log10)” value in assay [4] (10000 nM) was -0.0195 ± 0.036; in assay [5] (6700 nM) it was 0.0025 ± 0.016; in assay [5] (20000 nM), -0.001 ± 0.041; in assay [5] (60000 nM), -0.031 ± 0.041; in assay [6] (6700 nM), -0.0015 ± 0.018; in assay [6] (20000 nM) it was -0.028 ± 0.013. Besides, in assay [6] (60000 nM), the “level (log10)” value was -0.0405 ± 0.0078.

Regarding lMphg:CD62E/E-Selectin, the “level (log10)” value in assay [1] (6700 nM) is -0.0115 ± 0.00071; in assay [1] (20000 nM) it was 0.0015 ± 0.0021; in assay [1] (60000 nM), 0.0065 ± 0.0021; in assay [2] (1500 nM) it was -0.147 ± 0.0028; in assay [2] (4400 nM) it was -0.212 ± 0.0042; in assay [2] (13000 nM), -0.239 ± 0.089. For the same test system, the “level (log10)” value is -0.292 ± 0.061 in assay [2] (40000 nM); -0.0175 ± 0.047 in assay [3] (6700 nM); -0.0265 ± 0.057 in assay [3] (20000 nM); -0.0225 ± 0.054 in assay [3] (60000 nM); 0.002 ± 0.0014 in assay [4] (1100 nM); -0.03 ± 0.0028 in assay [4] (3300 nM). Further, the “level (log10)” value in assay [4] (10000 nM) is -0.0275 ± 0.026; in assay [5] (6700 nM) it was -0.02 ± 0.038; in assay [5] (20000 nM), -0.0155 ± 0.035; in assay [5] (60000 nM) it was -0.0285 ± 0.06; in assay [6] (6700 nM), -0.0195 ± 0.028; in assay [6] (20000 nM), -0.004 ± 0.013. In assay [6] (60000 nM), the “level (log10)” value is -0.0075 ± 0.0064.

For the test system lMphg:CD69, the “level (log10)” value was 0.0015 ± 0.005 in assay [1] (6700 nM); -0.0075 ± 0.035 in assay [1] (20000 nM); -0.039 ± 0.045 in assay [1] (60000 nM); 0.039 ± 0.014 in assay [2] (1500 nM); -0.007 ± 0.017 in assay [2] (4400 nM); -0.0155 ± 0.029 in assay [2] (13000 nM). The “level (log10)” value is -0.0585 ± 0.022 in assay [2] (40000 nM); -0.0165 ± 0.047 in assay [3] (6700 nM); -0.0145 ± 0.071 in assay [3] (20000 nM); 0.005 ± 0.099 in assay [3] (60000 nM); -0.02 ± 0.0099 in assay [4] (1100 nM); -0.017 ± 0.0042 in assay [4] (3300 nM). For the same test system, the “level (log10)” value in assay [4] (10000 nM) was -0.008 ± 0.0014; in assay [5] (6700 nM), 0.015 ± 0.0071; in assay [5] (20000 nM), 0 ± 0.027; in assay [5] (60000 nM) it was -0.021 ± 0.0042; in assay [6] (6700 nM), -0.0165 ± 0.036; in assay [6] (20000 nM), -0.024 ± 0.025. Moreover, the “level (log10)” value in assay [6] (60000 nM) worked out at 0.001 ± 0.038.

Take lMphg:CD106/VCAM-1: the “level (log10)” value in assay [1] (6700 nM) is -0.025 ± 0.0028; in assay [1] (20000 nM) it was -0.0055 ± 0.025; in assay [1] (60000 nM) it was -0.028 ± 0.042; in assay [2] (1500 nM), -0.018 ± 0.0071; in assay [2] (4400 nM), -0.039 ± 0.0028; in assay [2] (13000 nM) it was -0.0615 ± 0.013. The “level (log10)” value in assay [2] (40000 nM) is -0.086 ± 0.0042; in assay [3] (6700 nM) it was 0.0015 ± 0.0035; in assay [3] (20000 nM), -0.0015 ± 0.022; in assay [3] (60000 nM) it was -0.0085 ± 0.021; in assay [4] (1100 nM), 0.001 ± 0.0014; in assay [4] (3300 nM), 0.003 ± 0.021. For the same test system, the “level (log10)” value in assay [4] (10000 nM) was 0.0015 ± 0.044; in assay [5] (6700 nM), -0.007 ± 0.011; in assay [5] (20000 nM), 0.0005 ± 0.0092; in assay [5] (60000 nM), -0.009 ± 0.017; in assay [6] (6700 nM), -0.024 ± 0.041; in assay [6] (20000 nM), -0.0125 ± 0.033. Further, in assay [6] (60000 nM), the “level (log10)” value was -0.003 ± 0.048.

Consider lMphg:CXCL8/IL-8, for which the “level (log10)” value in assay [1] (6700 nM) was -0.0215 ± 0.0078; in assay [1] (20000 nM), 0.009 ± 0.027; in assay [1] (60000 nM), 0.0155 ± 0.025; in assay [2] (1500 nM) it was -0.108 ± 0.0064; in assay [2] (4400 nM), -0.138 ± 0.015; in assay [2] (13000 nM) it was -0.136 ± 0.011. Besides, the “level (log10)” value in assay [2] (40000 nM) is -0.129 ± 0.034; in assay [3] (6700 nM) it was 0.001 ± 0.04; in assay [3] (20000 nM) it was 0.005 ± 0.011; in assay [3] (60000 nM), 0.083 ± 0.037; in assay [4] (1100 nM) it was 0.0035 ± 0.04; in assay [4] (3300 nM) it was 0.005 ± 0.02. For the same test system, the “level (log10)” value in assay [4] (10000 nM) was 0.0375 ± 0.033; in assay [5] (6700 nM), 0.017 ± 0.059; in assay [5] (20000 nM), 0.032 ± 0.024; in assay [5] (60000 nM) it was 0.01 ± 0.076; in assay [6] (6700 nM), -0.0085 ± 0.074; in assay [6] (20000 nM) it was -0.03 ± 0.028. The “level (log10)” value in assay [6] (60000 nM) was 0.011 ± 0.034.
